“Also recorded” adds a separate entry of the source.
Experiments:
[1] = target: T1, scavenger receptor B1 (Mus musculus, UniProt Q61009); assay: Clearance of infused human RBCs from peripheral blood of RGSKI mice after blocking scavenger receptor B1 (FIG. 4); assay type: in vivo; details: BLT-1 80 mg/kg body weight one hour before human RBC infusion, control DMSO
T1 construct: endogenous in cells; host or cells: RGSKI mice (whole animal, in vivo)
T1 sequence (Q61009 1-509): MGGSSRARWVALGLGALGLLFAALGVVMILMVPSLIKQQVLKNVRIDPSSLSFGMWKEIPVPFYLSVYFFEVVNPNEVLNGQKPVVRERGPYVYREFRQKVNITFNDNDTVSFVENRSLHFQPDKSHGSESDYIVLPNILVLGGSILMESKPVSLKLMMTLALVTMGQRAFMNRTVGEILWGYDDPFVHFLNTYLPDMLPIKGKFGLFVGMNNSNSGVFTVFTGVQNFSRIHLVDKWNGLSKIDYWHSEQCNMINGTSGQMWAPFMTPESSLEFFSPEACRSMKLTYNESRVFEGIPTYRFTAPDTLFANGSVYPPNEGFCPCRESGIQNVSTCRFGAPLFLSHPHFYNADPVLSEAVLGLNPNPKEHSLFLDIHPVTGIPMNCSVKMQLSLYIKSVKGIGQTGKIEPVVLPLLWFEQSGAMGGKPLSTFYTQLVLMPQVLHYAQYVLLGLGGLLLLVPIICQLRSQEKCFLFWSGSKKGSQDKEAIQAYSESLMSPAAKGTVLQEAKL
Method: RGSKI mice were treated with scavenger receptor B1 named BLT-1 (80 mg/kg body weight). One hour after treatment, mice were infused with human RBCs and peripheral blood was collected at indicated time points. Control: DMSO.

[2] = system: human RBCs; assay: Clearance of infused human RBCs from peripheral blood of RGSKI mice after blocking macrophage receptors (FIG. 3); assay type: in vivo; details: RGSKI mice treated one hour before human RBC infusion, D-4F 10 mg/mouse, control PBS, peripheral blood by FACS
Method: D-4F blocks several scavenger receptors. RGSKI mice were treated with different antibodies or inhibitors to block various macrophage receptors. One hour after treatment, mice were infused with human RBCs and peripheral blood was collected at indicated time points. Anti-Dectin: 50 ug/mouse; Anti-CD169: 50 ug/mouse; Anti-CD169 clone 3D6: 100 ug/mice; Anti-Mannose receptor: 50 ug/mouse; D-4F: 10 mg/mouse; Asialofetuin: 10 mg/mouse; Control: PBS.
First, an experiment was conducted to examine the clearance of human red blood cells in mouse peripheral blood. Human and mouse red blood cells were pre-labeled with CFSE or violet dye, respectively, and then were transfused into RGSKI mice by retro-orbital injection. Peripheral blood was collected 5 minutes after blood infusion and the frequency of infused mouse or human RBCs was determined by FACS. It was observed that the frequency of infused human RBCs decreased more rapidly than mouse RBCs (FIG. 1B).
Experiments were then performed to evaluate the role of the scavenger receptor in RBC clearance. D-4F is an apolipoprotein A-I mimetic peptide and a general scavenger receptor inhibitor. D-4F is an 18 D-amino acid peptide (Ac-D-W-L-K-A-F-Y-D-K-V-A-E-K-L-K-E-A-F—NH2; SEQ ID NO: 2). […] Other pathways which might involve in the destruction of human RBCs in the periphery were also tested.

[3] = Navab et al., 2006; cited from earlier work

| Molecule | percent of remaining RBCs in the periphery after human RBC infusion [1] | protection of infused human RBCs in the periphery [2] | protection of infused human RBCs in the periphery ([2]; listed as D4-F) | cholesterol efflux, inflammation and atherosclerosis [3] |
| --- | --- | --- | --- | --- |
| CCCCCCC1CCCC1=NNC(N)=S (stereo not shown) [BLT-1, 2-Hexyl-1-cyclopentanone thiosemicarbazone] | can protect infused human RBCs in the mouse system; also recorded: increases the percent of remaining RBCs in the periphery |  |  |  |
| Ac-D-W-L-K-A-F-Y-D-K-V-A-E-K-L-K-E-A-F—NH2 (DWLKAFYDKVAEKLKEAF; HELM PEPTIDE1{[ac].[dD].[dW].[dL].[dK].[dA].[dF].[dY].[dD].[dK].[dV].[dA].[dE].[dK].[dL].[dK].[dE].[dA].[dF].[am]}$$$$V2.0; SMILES CC(=O)N[C@H](CC(=O)O)C(=O)N[C@H](Cc1c[nH]c2ccccc12)C(=O)N[C@H](CC(C)C)C(=O)N[C@H](CCCCN)C(=O)N[C@H](C)C(=O)N[C@H](Cc1ccccc1)C(=O)N[C@H](Cc1ccc(O)cc1)C(=O)N[C@H](CC(=O)O)C(=O)N[C@H](CCCCN)C(=O)N[C@@H](C(=O)N[C@H](C)C(=O)N[C@H](CCC(=O)O)C(=O)N[C@H](CCCCN)C(=O)N[C@H](CC(C)C)C(=O)N[C@H](CCCCN)C(=O)N[C@H](CCC(=O)O)C(=O)N[C@H](C)C(=O)N[C@H](Cc1ccccc1)C(N)=O)C(C)C) [D-4F] |  | blocks in vivo destruction of human RBCs | protected infused human RBCs in the periphery | increase cholesterol efflux and reduce inflammation and atherosclerosis |
